Source: ChEMBL document CHEMBL5260811, “Drug development against tuberculosis: Impact of alkaloids” (Eur J Med Chem, 2017)

Tests used:
[1] = tested on: Mycobacterium tuberculosis variant bovis; assay: Antimycobacterial activity against Mycobacterium bovis; format: functional
[2] = tested on: Mycobacterium tuberculosis variant bovis; assay: Antimycobacterial activity against Mycobacterium bovis BCG; format: functional

Compound | IC [1] [µg/mL] | IC [2] [µg/mL]
OC1CCCC/C=C\CCCC[C@@H]2CN3CCCC/C=C\CCCC[C@H]4C[C@H](CN(C1)C4)[C@H]2CC3 (some centres undefined) | 12.5 | –
C(=N\Nc1nncs1)/c1c[nH]c2ccccc12 | – | 7.81
C1=C\CCCCN2C[C@H]3CCCC/C=C\CCCCN4CC[C@@H]([C@H](CCCCCC/1)C4)[C@H](C3)C2 | 2.5 | –
C1=C\CCCC[C@@H]2CN3CCCC/C=C\CCCC[C@H]4C[C@H](CN(CCCCCC/1)C4)[C@H]2CC3 | 1 | –
